Assay results reported in patent publication US11639325B2, “Compositions of polyhydroxylated benzophenones and methods of treatment of neurodegenerative disorders” (Massachusetts Institute of Technology, priority 2015, dated 2023).
“Also recorded” adds a separate entry of the source. Like-named read-outs stand apart in the source and are kept apart here.

What was measured:
[1] = system: Human induced pluripotent stem cell (iPSC)-derived neurons; experiment: Viability (Alamar Blue) of human iPSC-derived neurons under rotenone stress; assay type: cell-based
Source text: To further determine the effects of exifone on neurodegenerative disorders like frontotemporal dementia, Alzheimer's disease, and Parkinson's disease, a cellular model of mitochondrial dysfunction and tauopathy was used. Human induced pluripotent stem cell (iPSC)-derived neurons from a healthy control (FIG. 15A) and a frontotemporal dementia patient with a mutation in tau (FIG. 15B) were differentiated in culture for eight weeks (See Silva et al., Stem Cell Reports, 2016). […] Cell viability was measured by Alamar Blue (4 h) assay±SD. Statistical Analysis: Student T-Test; ^nsP>0.05, *P<0.05, **P<0.01, ***P<0.001; n=2 and technical triplicates.

5XFAD mice [2] = experiment: LTP recording in hippocampal slices of treated 5XFAD mice; assay type: in vivo, mouse; conditions: thirteen-month-old 5XFAD mice, 50 mg/kg i.p. for 2 weeks
Description: Thirteen-month-old mice were administered doses of 50 mg per kg body weight exifone or vehicle by intraperitoneal injection for 2 weeks before long-term potentiation (LTP) recordings. For LTP recording, mice were anesthetized with isoflurane and decapitated. Transverse hippocampal slices (400 μm thick) were prepared in ice-cold dissection buffer (in mM: 211 sucrose, 3.3 KCl, 1.3 NaH2PO4, 0.5 CaCl2, 10 MgCl2, 26 NaHCO3 and 11 glucose) using a Leica VT1000S vibratome (Leica). Slices were recovered in a submerged chamber with 95% O2/5% CO2-saturated artificial cerebrospinal fluid (ACSF) consisting of (in mM) 124 NaCl, 3.3 KCl, 1.3 NaH2PO4, 2.5 CaCl2, 1.5 MgCl2, 26 NaHCO3 and 11 glucose for 1 h at 28-30° C. For extracellular LTP recording, CA1 field potentials evoked by Schaffer collateral stimulation with bipolar electrode was measured every 30 s. After recording of stable baseline for 15 min, LTP was induced by single theta-burst stimulations (TBS, containing 10 brief bursts which consisted of four pulses at 100 Hz).

cultured neurons = experiment: Immunostaining for γH2AX (DNA double-stranded breaks) in cultured neurons; assay type: cell-based
CK-p25 mice = experiment: CK-p25 mouse model of neurodegeneration: immunohistochemistry and fear conditioning; assay type: in vivo
Description: (§1) For contextual fear conditioning, mice were put in the conditioning chamber (TSE systems) for 3 min, after which they received a one-time footshock (2 s, 0.8 mA). After 24 hr in the home cage, mice were placed in the same chamber and the freezing bouts, defined as a total lack of movement except for a heartbeat and respiration, were scored during every 10 s during a 3 min period.
(§2) Cued fear conditioning was performed by placing the animals in the test chamber for 3 min following exposure to the auditory cue (30 s, 20 kHz, 75 db sound pressure level) and a foot shock (2 s, 0.8 mA). Associative learning was assessed 24 hr later by placing the mice in the modified chamber and delivery of the identical auditory cue for 3 min.
CK-p25 mice are characterized by massive neuronal loss and severe memory impairment after 6 weeks of the p25 transgene induction (Cruz et al. Aberrant Cdk5 activation by p25 triggers pathological events leading to neurodegeneration and neurofibrillary tangles. Neuron. 2003 Oct. 30; 40(3):471-83). Exifone was chronically administered in CK-p25 mice, model, 3-month-old CK-p25 mice and control mice (no p25 overexpression) were induced for 6 weeks. They received either daily Exifone or vehicle for 3 weeks from week 3 to 6 during the induction period (FIG. 8A).
The associative memory in mice was examined by the contextual fear conditioning test described in Example 3. Mice were treated with vehicle control or exifone and freezing behavior observed 24 hours after contextual fear conditioning training.

HDAC2 = molecular target: T1, HDAC2 (Homo sapiens, UniProt Q92769); experiment: RapidFire Mass Spec assay of HDAC2 deacetylase activity; assay type: biochemical; conditions: FIG. 4; read-out: EC50 for HDAC2 activation
T1 construct: purchased BPS Biosciences (San Diego, Calif.)
T1 sequence (Q92769 whole entry): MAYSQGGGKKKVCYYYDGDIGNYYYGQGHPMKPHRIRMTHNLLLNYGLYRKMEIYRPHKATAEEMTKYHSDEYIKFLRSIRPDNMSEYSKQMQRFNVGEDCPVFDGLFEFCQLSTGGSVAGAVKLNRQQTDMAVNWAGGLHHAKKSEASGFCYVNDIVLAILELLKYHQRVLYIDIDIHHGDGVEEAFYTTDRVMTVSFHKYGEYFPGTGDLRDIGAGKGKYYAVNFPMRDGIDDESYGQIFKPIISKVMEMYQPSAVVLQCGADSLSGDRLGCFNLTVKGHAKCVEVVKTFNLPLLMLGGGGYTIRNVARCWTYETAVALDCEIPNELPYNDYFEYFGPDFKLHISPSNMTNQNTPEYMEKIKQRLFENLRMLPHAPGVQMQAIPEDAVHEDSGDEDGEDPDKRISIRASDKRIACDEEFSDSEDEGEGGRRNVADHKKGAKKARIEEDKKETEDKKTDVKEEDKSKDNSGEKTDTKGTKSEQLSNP
Description: (§3) Bio-H4K12ac and Bio-p53K382ac peptides were purchased from Anaspec (Fremont, Calif.). Recombinant HDAC1 and HDAC2 were from BPS Biosciences (San Diego, Calif.). Biochemical assays for evaluation of enzyme activity were performed in 384-well microplates (Perkin Elmer, Waltham, Mass.). A high throughput mass spectrometry assay based on RapidFire™ platform (Agilent Technology, Wakefield, Mass.) was used for analysis of HDAC activity with acetylated peptide substrates derived from histone Bio-H4K12ac (Anaspec #64849) and non-histone Bio-p53K382ac (Anaspec #65046) sequences.
For determination of dose dependence curves, test compounds were preincubated with HDAC1 for 15 minutes. […]
For Mass Spec based detection, assay plates were transferred onto a high throughput RapidFire200 integrated autosampler/solid-phase extraction (SPE) system (Agilent Technologies, Wakefield, Mass.) coupled to an API4000 triple quadrupole mass spectrometer (Applied Biosystems, Concord, Ontario, Canada). […] The peaks detected by Mass Spec were integrated and processed with RapidFire peak integration software (Agilent).
Percentage of substrate conversion was estimated from the RapidFire HTMS assay as a function of product and substrate mass spectrum peak areas and is equal to 100*[Product/(Product+Substrate)]. […] MAX and MIN values were calculated from an average of 16 wells of a single column of 384 well plate. […]

5XFAD mice [3] = experiment: 5XFAD mice behavioral tests (open field, contextual and cued fear conditioning); assay type: in vivo, mouse; conditions: 50 mg/kg i.p. for 2 weeks
Description: 8-month-old males (WT or 5XFAD mice) received daily for two weeks of full treatment either vehicle (80% saline, 10% DMSO, 10% Tween-80) or exifone (FIG. 1A) (50 mg/kg). Administration was by intraperitoneal injection for 2 weeks. After 2 weeks of treatment, mice were handled more than 3 days before each behavioral test.
Open field test was monitored by TSE Multi Conditioning System, total distance traveled and the number of visits in center were measured using automated activity monitors.
To assess memory formation, fear-conditioning tests in rodents were used. In these paradigms, the extent of freezing behavior, which is defined as the complete lack of movement other than from respiration upon re-exposure to an aversive stimulus (e.g. mild foot shock) and an environmental cue in the form of a specific context (e.g. test chamber) or cue (e.g. a tone), provides an assessment of the strength of memory. […]
as §1, §2
Behavioral tests were performed on vehicle treated wild type (WT) mice and 5XFAD mice treated with either vehicle control or exifone. […] In both contexts, freezing behavior of the mice was scored for examination memory.

5XFAD mice [4] = experiment: Western blotting of hippocampi of treated 5XFAD mice (histone deacetylation); assay type: in vivo, mouse; conditions: 50 mg/kg i.p. for 2 weeks
Description: To determine the effects of restoration of HDAC1 activity in 5XFAD mice, mice were treated with exifone. Briefly, eight-month-old mice were administered doses of 50 mg/kg body weight exifone or vehicle control (10% DMSO, 10% Tween-80 and 80% saline) by intraperitoneal injection for 2 weeks. After 2 weeks of treatment, hippocampi were dissected and homogenized in RIPA buffer for Western blotting (FIGS. 10B and 10C).

HDAC1 = molecular target: T2, HDAC1 (Homo sapiens, UniProt Q13547); experiment: RapidFire Mass Spec assay of HDAC1 deacetylase activity with acetylated peptide substrates; assay type: biochemical; conditions: for HDAC1 activation (deacetylase activity): Bio-H4K12ac and bio-p53K382ac peptide substrates; for reversal of HDAC1 inhibition by CI-994: HDAC1 preincubated with exifone 1 or 10 μM, or with CI-994 1, 5 or 10 μM for 2 hours
T2 construct: purchased BPS Biosciences (San Diego, Calif.)
T2 sequence (Q13547 whole entry): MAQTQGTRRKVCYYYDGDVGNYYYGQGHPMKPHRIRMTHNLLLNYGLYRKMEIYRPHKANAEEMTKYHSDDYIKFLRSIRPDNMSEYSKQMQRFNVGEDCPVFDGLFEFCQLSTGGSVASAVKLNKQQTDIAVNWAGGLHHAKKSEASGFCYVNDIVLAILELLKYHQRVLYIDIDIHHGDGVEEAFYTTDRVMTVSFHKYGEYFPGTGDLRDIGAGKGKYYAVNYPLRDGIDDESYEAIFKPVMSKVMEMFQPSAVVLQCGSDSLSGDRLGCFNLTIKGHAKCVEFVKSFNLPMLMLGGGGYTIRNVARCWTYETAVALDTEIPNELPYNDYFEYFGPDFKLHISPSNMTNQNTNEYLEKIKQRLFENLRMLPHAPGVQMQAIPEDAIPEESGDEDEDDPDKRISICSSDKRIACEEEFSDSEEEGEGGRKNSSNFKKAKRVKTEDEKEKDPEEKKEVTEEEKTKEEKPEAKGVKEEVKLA
Description: as §3
For determination of dose dependence curves, test compounds were preincubated with HDAC1 for 15 minutes. Histone deacetylase reactions were performed following addition of acetylated peptide substrate. The reactions were performed in standard 384-well plates in 50 μl volume with an assay buffer containing 50 mM Tris, pH 7.4, 100 mM KCl, and 0.01% Brij-35. Enzyme reactions were terminated by adding 5 μl of 10% formic acid. Experiments designed to determine the mechanism of action used a varied range of substrate and test compound concentrations. For determining the dose response of individual compounds, HDAC1 reactions were performed with 1 μM of the acetylated peptide substrate for durations ranging from 45 mins for Bio-p53K382ac and 60 minutes for Bio-H4K12ac, with the aim of keeping the substrate conversion below 10%.
For Mass Spec based detection, assay plates were transferred onto a high throughput RapidFire200 integrated autosampler/solid-phase extraction (SPE) system (Agilent Technologies, Wakefield, Mass.) coupled to an API4000 triple quadrupole mass spectrometer (Applied Biosystems, Concord, Ontario, Canada). Additional details for the RapidFire MS analysis are described elsewhere (Rye et al. Advances in label-free screening approaches for studying sirtuin-mediated deacetylation. J Biomol Screen. 2011 December; 16(10):1217-26; Rye et al. Advances in label-free screening approaches for studying histone acetyltransferases. J Biomol Screen. 2011 December; 16(10):1186-95). The peaks detected by Mass Spec were integrated and processed with RapidFire peak integration software (Agilent).
Percentage of substrate conversion was estimated from the RapidFire HTMS assay as a function of product and substrate mass spectrum peak areas and is equal to 100*[Product/(Product+Substrate)]. Percentage of enzyme activation=[(MIN-test compound)/(MIN−MAX)*100], where MINimal (0%) enzyme activity is observed in the presence of a histone deacetylase inhibitor [10 μM SAHA (suberoylanilide hydroxamic acid), SAHA; Vorinostat] and MAXimal enzyme activity of HDAC1 reaction in absence of test compound as 100% activity. MAX and MIN values were calculated from an average of 16 wells of a single column of 384 well plate. Data were analyzed and plotted using Graphpad Prism 6.
Activator potencies were compared by estimating the EC^1.5 values as a function of EC50 values and maximum relative velocity (RVmax) (Dai et al, 2010). EC^1.5 is the concentration of the activator required to achieve 1.5 fold activation (Dai et al, 2010). Data on enzyme activation were analyzed using non-essential enzyme activation (Segel, (1975) Enzyme Kinetics, John Wiley, New York).

[5] = AD mice model (CK-p25 mice) as printed
[6] = increasing exifone concentrations

C=C(C)[C@H]1Cc2c(ccc3c2O[C@@H]2COc4cc(OC)c(OC)cc4[C@@H]2C3=O)O1 [rotenone]
decrease in viability of tauopathy patient-derived neurons ([1]; rotenone, 18 hour): > 50%

O=C(c1cc(O)c(O)c(O)c1)c1ccc(O)c(O)c1O [exifone]
LTP induction (5XFAD mice [2]): reinstatement of LTP induction
γH2AX intensity (DNA damage) (cultured neurons): significantly reduced the intensity of γH2AX; also recorded: protection from DNA damage
basal locomotion in the open-field test (CK-p25 mice; [5]): without an effect on basal locomotion
cognitive function in cued fear-conditioning test (CK-p25 mice; [5]): not in cued fear-conditioning test
freezing behavior / cognitive function in contextual fear conditioning test (CK-p25 mice; CK-p25 mice, 24 hours after training): enhances the cognitive function; also recorded: comparable freezing behavior to vehicle-treated or exifone-treated control mice
neuronal loss / markers of neurodegeneration (γH2A.X, NeuN, Hoechst) in hippocampus (CK-p25 mice; CK-p25 mice, daily for 3 weeks during p25 induction): significantly ameliorated neuronal loss; also recorded: significant reduction of these markers of neurodegeneration; also recorded: ameliorates neuronal loss
rescue of viability of tauopathy patient-derived neurons from rotenone-induced stress ([1]; 8 hours pre-treatment, then 18 hour rotenone, multiple doses): rescued the vulnerability
EC50 (HDAC2): 82 nM
freezing response in conditioned (contextual) fear conditioning test (5XFAD mice [3]): significantly increased
freezing response in cued fear conditioning test (5XFAD mice [3]): significantly increased
open-field total distance traveled and number of visits to the center (5XFAD mice [3]): no effect on either of these parameters
histone deacetylation and HDAC1 activity in hippocampus (5XFAD mice [4]): trend towards increased histone deacetylation and HDAC1 activity
maximal activation of HDAC1 (HDAC1; 2 hour incubation of HDAC1 at room temperature prior to addition to reaction mix): up to nine fold
HDAC1 activation (deacetylase activity) (HDAC1): dose-dependent increase in HDAC1 activation; also recorded: potent small molecule activator of HDAC1; also recorded: increases the deacetylase activity of HDAC1
selectivity for HDAC1 activation compared with HDAC2 (HDAC1; FIG. 4): at least four fold more selective
EC50 (HDAC1; FIG. 4, read-out: EC50 for HDAC1 activation (selectivity experiment)): 20 nM
EC50 (HDAC1; FIGS. 1B and 1D, 2 hour incubation of HDAC1 at room temperature prior to addition to reaction mix, read-out: EC50 of HDAC1 activation): 45 nM
reversal of HDAC1 inhibition by CI-994 (HDAC1): capable of reversing inhibition
reversal of HDAC1 inhibition by CI-994 (HDAC1; listed as Exifone): partially reversed the inhibitory effect
HDAC1 activation at high substrate concentration (HDAC1; bio-H4K12ac peptide concentrations of 125 and 250 μM): No activation was observed
Vmax of HDAC1 reaction (HDAC1; [6]): increased the Vmax
apparent Km for the bio-H4K12ac peptide (HDAC1; [6]): decreased the apparent Km
rate of HDAC1-mediated deacetylation (substrate conversion) (HDAC1; substrate 1 μM, HDAC1 40 nM, exifone 0.05 μM vs control): increased the rate of HDAC1-mediated reactions compared to control conditions; also recorded: increases the rate of deacetylation reaction by HDAC1
mechanism of HDAC1 activation (HDAC1; varied substrate and activator concentrations): mixed non-essential reaction

O=C(c1ccccc1)c1ccccc1 [Benzophenone]
HDAC1 activation (deacetylase activity) (HDAC1): did not cause HDAC1 activation
HDAC1 activation (deacetylase activity) (HDAC1; listed as non-hydroxylated benzophenone): does not
